Our source for the IC50 values is ChEMBL document CHEMBL1127771, “Structure-activity relationships in a series of monocyclic endothelin analogues” (Bioorg Med Chem Lett, 1994).

The target of experiment [1] is T1, Endothelin receptor type B (Rattus norvegicus, UniProt P21451).
T1 sequence (P21451 whole entry): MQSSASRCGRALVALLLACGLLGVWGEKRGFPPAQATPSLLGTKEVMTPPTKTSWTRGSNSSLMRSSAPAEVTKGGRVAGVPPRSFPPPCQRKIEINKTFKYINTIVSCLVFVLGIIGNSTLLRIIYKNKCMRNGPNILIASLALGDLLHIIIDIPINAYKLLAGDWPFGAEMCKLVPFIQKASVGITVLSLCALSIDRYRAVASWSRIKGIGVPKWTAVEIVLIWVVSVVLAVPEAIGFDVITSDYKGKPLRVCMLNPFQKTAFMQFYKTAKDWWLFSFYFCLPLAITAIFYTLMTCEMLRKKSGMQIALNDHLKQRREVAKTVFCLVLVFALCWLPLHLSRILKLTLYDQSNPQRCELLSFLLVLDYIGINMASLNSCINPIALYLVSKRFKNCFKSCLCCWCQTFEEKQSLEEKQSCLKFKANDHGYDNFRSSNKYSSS
The experiment can be described thus: Binding affinity against Endothelin B receptor in rat cerebellar membrane (ET-B) from adult blue laurie rat. The format is cell membranes, Cerebellum.

Experiment [2] has as its target T2, Endothelin-1 receptor (Rattus norvegicus, UniProt P26684).
T2 sequence (P26684 whole entry): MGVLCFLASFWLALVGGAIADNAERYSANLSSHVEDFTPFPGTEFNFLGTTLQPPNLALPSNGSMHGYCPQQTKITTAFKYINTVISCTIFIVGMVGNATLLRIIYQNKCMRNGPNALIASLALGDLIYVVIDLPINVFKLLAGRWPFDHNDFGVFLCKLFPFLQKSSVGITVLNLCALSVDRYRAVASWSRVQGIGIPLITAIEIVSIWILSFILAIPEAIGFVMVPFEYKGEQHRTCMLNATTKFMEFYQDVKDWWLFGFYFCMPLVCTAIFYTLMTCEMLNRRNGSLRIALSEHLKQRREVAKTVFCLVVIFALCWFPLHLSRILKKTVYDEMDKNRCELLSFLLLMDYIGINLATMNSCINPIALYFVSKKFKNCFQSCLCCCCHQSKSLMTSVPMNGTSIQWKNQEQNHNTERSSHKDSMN
Nature of the experiment: In vitro binding affinity against Endothelin A receptor by using endothelin (ET-1) as radioligand in rat heart ventricle.

The species named for experiment [3] is Rattus norvegicus. Nature of the experiment: Inhibition of ET-1 induced accumulation of inositol phosphates (IP-3) in rat skin fibroblasts. The class given is functional.
Experiment [4] addresses T1, Endothelin receptor type B. The experiment can be described thus: Binding affinity against endothelin receptor in rat cerebellar membrane (ET-B) from adult blue laurie rat. The class given is cell membranes, Cerebellum.

Where a SMILES comes first, the peptide text is derived from it. Bridges are numbered along the chain shown (N, C = ends). [ ]: non-standard residue; d: D form. Aoc = NCCCCCCCC(=O)O; Ava = NCCCCC(=O)O

As for `CC[C@H](C)[C@H](NC(=O)[C@H](CC(=O)O)NC(=O)[C@H](CC(C)C)NC(=O)[C@H](Cc1c[nH]cn1)NC(=O)[C@@H]1CSSC[C@H](N)C(=O)N[C@@H](CO)C(=O)N[C@@H](C(C)C)C(=O)N[C@@H](Cc2ccc(O)cc2)C(=O)N[C@@H](Cc2ccccc2)C(=O)N1)C(=O)N[C@H](C(=O)N[C@@H](Cc1c[nH]c2ccccc12)C(=O)O)[C@@H](C)CC` (H-CSVYFCHLDIIW-OH; disulfide 1-6), the IC50 (in general, the concentration needed to halve the response being measured) worked out at 1700 nM in experiment [1] and 2800 nM in experiment [2].
For the compound `CC[C@H](C)[C@H](NC(=O)[C@H](CC(=O)O)NC(=O)[C@H](CC(C)C)NC(=O)[C@H](Cc1c[nH]cn1)NC(=O)[C@@H]1CSSC[C@H](N)C(=O)N[C@@H](CO)C(=O)N[C@@H](CC(=O)O)C(=O)N[C@@H](CCCCN)C(=O)N[C@@H](CCC(=O)O)C(=O)N[C@@H](C(C)C)C(=O)N[C@@H](Cc2ccc(O)cc2)C(=O)N[C@@H](Cc2ccccc2)C(=O)N1)C(=O)N[C@H](C(=O)N[C@@H](Cc1c[nH]c2ccccc12)C(=O)O)[C@@H](C)CC` (H-CSDKEVYFCHLDIIW-OH; disulfide 1-9) [listing 1 of 2 here], the IC50 in experiment [3] is > 10000 nM.
Consider `CC[C@H](C)[C@H](NC(=O)[C@H](CC(=O)O)NC(=O)[C@H](CC(C)C)NC(=O)[C@H](Cc1c[nH]cn1)NC(=O)[C@@H]1CSSC[C@H](N)C(=O)N[C@@H](CO)C(=O)N[C@@H](CO)C(=O)N[C@@H](CO)C(=O)N[C@@H](C(C)C)C(=O)N[C@@H](Cc2ccc(O)cc2)C(=O)N[C@@H](Cc2ccccc2)C(=O)N1)C(=O)N[C@H](C(=O)N[C@@H](Cc1c[nH]c2ccccc12)C(=O)O)[C@@H](C)CC` (H-CSSSVYFCHLDIIW-OH; disulfide 1-8), for which the results for the half-inhibitory concentration (IC50) in experiment [1], in experiment [2] and in experiment [3] were 60 nM, 1200 nM and 5000 nM, respectively.
In experiment [3], `CC[C@H](C)[C@H](NC(=O)[C@H](CC(=O)O)NC(=O)[C@H](CC(C)C)NC(=O)[C@H](Cc1c[nH]cn1)NC(=O)[C@@H]1CSSC[C@H](N)C(=O)N[C@@H](CO)C(=O)NCCCCCCC(=O)N[C@@H](C(C)C)C(=O)N[C@@H](Cc2ccc(O)cc2)C(=O)N[C@@H](Cc2ccccc2)C(=O)N1)C(=O)N[C@H](C(=O)N[C@@H](Cc1c[nH]c2ccccc12)C(=O)O)[C@@H](C)CC` [listing 1 of 2 here] yielded an IC50 of 8000 nM.
`CC[C@H](C)[C@H](NC(=O)[C@H](CC(=O)O)NC(=O)[C@H](CC(C)C)NC(=O)[C@H](Cc1c[nH]cn1)NC(=O)[C@@H]1CSSC[C@H](N)C(=O)N[C@@H](CO)C(=O)NCCCCC(=O)N[C@@H](C(C)C)C(=O)N[C@@H](Cc2ccc(O)cc2)C(=O)N[C@@H](Cc2ccccc2)C(=O)N1)C(=O)N[C@H](C(=O)N[C@@H](Cc1c[nH]c2ccccc12)C(=O)O)[C@@H](C)CC` (H-CS[Ava]VYFCHLDIIW-OH; disulfide 1-7): the IC50 in experiment [2] is 1800 nM; in experiment [3], > 10000 nM; in experiment [4] it was 350 nM.
As to `CC[C@H](C)[C@H](NC(=O)[C@H](CC(=O)O)NC(=O)[C@H](CC(C)C)NC(=O)[C@H](Cc1c[nH]cn1)NC(=O)[C@@H]1CSSC[C@H](N)C(=O)N[C@@H](C(C)C)C(=O)N[C@@H](Cc2ccc(O)cc2)C(=O)N[C@@H](Cc2ccccc2)C(=O)N1)C(=O)N[C@H](C(=O)N[C@@H](Cc1c[nH]c2ccccc12)C(=O)O)[C@@H](C)CC` (H-CVYFCHLDIIW-OH; disulfide 1-5), the half-maximal inhibitory concentration (IC50) in experiment [1] amounted to 1700 nM; in experiment [2], 6500 nM; in experiment [3], 2200 nM.
In the case of `CC[C@H](C)[C@H](NC(=O)[C@H](CC(=O)O)NC(=O)[C@H](CC(C)C)NC(=O)[C@H](Cc1cnc[nH]1)NC(=O)[C@@H]1CSSC[C@H](N)C(=O)N[C@@H](CO)C(=O)N[C@@H](CO)C(=O)N[C@@H](CC(C)C)C(=O)N[C@@H](CCSC)C(=O)N[C@@H](CC(=O)O)C(=O)N[C@@H](CCCCN)C(=O)N[C@@H](CCC(=O)O)C(=O)N1)C(=O)N[C@H](C(=O)N[C@@H](Cc1c[nH]c2ccccc12)C(=O)O)[C@@H](C)CC` (H-CSSLMDKECHLDIIW-OH; disulfide 1-9), the concentration for half-maximal inhibition (IC50) was 49000 nM in experiment [2] and > 10000 nM in experiment [4].
In the case of `CC[C@H](C)[C@H](NC(=O)[C@H](CC(=O)O)NC(=O)[C@H](CC(C)C)NC(=O)[C@H](Cc1cnc[nH]1)NC(=O)[C@@H]1CSSC[C@H](N)C(=O)N[C@@H](CO)C(=O)NCCCCCCCC(=O)N[C@@H](C(C)C)C(=O)N[C@@H](Cc2ccc(O)cc2)C(=O)N[C@@H](Cc2ccccc2)C(=O)N1)C(=O)N[C@H](C(=O)N[C@@H](Cc1c[nH]c2ccccc12)C(=O)O)[C@@H](C)CC` (H-CS[Aoc]VYFCHLDIIW-OH; disulfide 1-7), the IC50 came to 240 nM in experiment [1] and 1600 nM in experiment [2].
With `CC[C@H](C)[C@H](NC(=O)[C@H](CC(=O)O)NC(=O)[C@H](CC(C)C)NC(=O)[C@H](Cc1c[nH]cn1)NC(=O)[C@@H]1CSSC[C@H](N)C(=O)N[C@@H](CO)C(=O)N[C@@H](CO)C(=O)N[C@@H](C(C)C)C(=O)N[C@@H](Cc2ccc(O)cc2)C(=O)N[C@@H](Cc2ccccc2)C(=O)N1)C(=O)N[C@H](C(=O)N[C@@H](Cc1c[nH]c2ccccc12)C(=O)O)[C@@H](C)CC` (H-CSSVYFCHLDIIW-OH; disulfide 1-7), the 50% inhibitory concentration (IC50) in experiment [1] was found to be 1400 nM; in experiment [2], 1800 nM.
On to `CC[C@H](C)[C@H](NC(=O)[C@H](CC(=O)O)NC(=O)[C@H](CC(C)C)NC(=O)[C@H](Cc1c[nH]cn1)NC(=O)[C@@H]1CSSC[C@H](N)C(=O)N[C@@H](CO)C(=O)NCCCCCCCC(=O)N[C@@H](C(C)C)C(=O)N[C@@H](Cc2ccc(O)cc2)C(=O)N[C@@H](Cc2ccccc2)C(=O)N1)C(=O)N[C@H](C(=O)N[C@@H](Cc1c[nH]c2ccccc12)C(=O)O)[C@@H](C)CC` (H-CS[Aoc]VYFCHLDIIW-OH; disulfide 1-7), for which the IC50 in experiment [3] is 3000 nM.
Take `CC[C@H](C)[C@H](NC(=O)[C@H](CC(=O)O)NC(=O)[C@H](CC(C)C)NC(=O)[C@H](Cc1c[nH]cn1)NC(=O)[C@@H]1CSSC[C@H](N)C(=O)N[C@@H](CO)C(=O)NCCCCCCC(=O)N[C@@H](C(C)C)C(=O)N[C@@H](Cc2ccc(O)cc2)C(=O)N[C@@H](Cc2ccccc2)C(=O)N1)C(=O)N[C@H](C(=O)N[C@@H](Cc1c[nH]c2ccccc12)C(=O)O)[C@@H](C)CC` [listing 2 of 2 here]: the IC50 in experiment [2] amounted to 2500 nM.
For the compound `CC[C@H](C)[C@H](NC(=O)[C@H](CC(=O)O)NC(=O)[C@H](CC(C)C)NC(=O)[C@H](Cc1c[nH]cn1)NC(=O)[C@@H]1CSSC[C@H](N)C(=O)N[C@@H](CO)C(=O)N[C@@H](CC(=O)O)C(=O)N[C@@H](CCCCN)C(=O)N[C@@H](CCC(=O)O)C(=O)N[C@@H](C(C)C)C(=O)N[C@@H](Cc2ccc(O)cc2)C(=O)N[C@@H](Cc2ccccc2)C(=O)N1)C(=O)N[C@H](C(=O)N[C@@H](Cc1c[nH]c2ccccc12)C(=O)O)[C@@H](C)CC` (H-CSDKEVYFCHLDIIW-OH; disulfide 1-9) [listing 2 of 2 here], the IC50 turned out to be 1100 nM in experiment [1] and 3500 nM in experiment [2].
